Experimental findings from patent US20230079045A1 (priority 2019, published 2023) are described below.

What all share (type): cell-based, influenza virus
For test [1], the system named is IFV A/PR/8/34. In words: cytopathic effect (CPE) antiviral test in MDCK cells, IFV A/PR/8/34. The settings on record: unidentified influenza virus, PR/8, MDCK, 120 h, read-out: EC50(IFV A/PR/8/34).
The test system of test [2] is IFVA/Weiss/43. In words: cytopathic effect (CPE) antiviral test in MDCK cells, IFVA/Weiss/43. Conditions: unidentified influenza virus, MDCK, 120 h, read-out: EC50(IFVA/Weiss/43), MDCK cells, CPE method, CCK-8 cell viability, 5 days.
Test [3] deals with IFVA/Mal/302/54. In words: cytopathic effect (CPE) antiviral test in MDCK cells, IFVA/Mal/302/54. The settings on record: unidentified influenza virus, MDCK, 120 h, read-out: EC50(IFVA/Mal/302/54), MDCK cells, CPE method, CCK-8 cell viability, 5 days.

On to `CC(C)(F)C(=O)Nc1ccc2oc(-c3ccnc(C(=O)N4CCN(C(c5ccccc5)c5nnn(C(F)F)n5)CC4)c3)nc2c1` (racemic) [Compound 108, (R/S)—N-(2-(2-(4-((2-(difluoromethyl)-2H-tetrazol-5-yl)(phenyl)methyl)piperazine-1-carbonyl)pyridin-4-yl)benzo[d]oxazol-5-yl)-2-fluoro-2-methylpropanamide], for which the figures for the EC50 in test [1], in test [2] and in test [3] were 23 nM, 2 nM and 6 nM, respectively.
In the case of `CCC(=O)Nc1ccc2oc(-c3ccnc(C(=O)N4CCN(C(c5ccccc5)c5nnn(C(F)F)n5)CC4)c3)nc2c1` (racemic) [Compound 96, (R/S)—N-(2-(2-(4-((2-(difluoromethyl)-2H-tetrazol-5-yl)(phenyl)methyl)piperazine-1-carbonyl)pyridin-4-yl)benzo[d]oxazol-5-yl)propionamide], the EC50 was found to be 12 nM in test [2] and 7 nM in test [3].
Consider `O=C(c1cc(-c2nc3cc(-c4cscn4)ccc3o2)ccn1)N1CCN(C(c2ccccc2)c2nnn(C(F)F)n2)CC1` (racemic) [Compound 110, (R/S)-(4-((2-(difluoromethyl)-2H-tetrazol-5-yl)(phenyl)methyl)piperazin-1-yl)(4-(5-(thiazol-4-yl)benzo[d]oxazol-2-yl)pyridin-2-yl)methanone], for which the EC50 in test [2] and in test [3] was 3 nM each time.
Regarding `O=C(Nc1ccc2oc(-c3ccnc(C(=O)N4CCN(C(c5ccccc5)c5nnn(C(F)F)n5)CC4)c3)nc2c1)[C@@H]1C[C@@H]1F` (mixture of isomers) [Compound 31, (1S,2S)-2-fluoro-N-(2-(2-(4-((2-difluoromethyl-2H-tetrazol-5-yl)(phenyl)methyl)piperazine-1-carbonyl)pyridin-4-yl)benzo[d]oxazol-5-yl)cyclopropane-1-carboxamide], the EC50 in test [2] turned out to be 2 nM; in test [3], 7 nM.
For `CC(=O)Nc1ccc2oc(-c3ccnc(C(=O)N4CCC(=C(c5ccccc5)c5nnn(C)n5)CC4)c3)nc2c1` [Compound 49, N-(2-(2-(4-((2-methyl-2H-tetrazol-5-yl)(phenyl)methylene)piperidine-1-carbonyl)pyridin-4-yl)benzo[d]oxazol-5-yl)acetamide], in that order: 112 nM and 180 nM.
In the case of `Cn1nnc(C(c2ccccc2)N2CCN(C(=O)c3cc(-c4nc5cc(NC(=O)[C@H]6C[C@@H]6F)ccc5o4)ccn3)CC2)n1` (stereo partly drawn) [Compound 27, (1R,2S)-2-fluoro-N-(2-(2-(4-((2-methyl-2H-tetrazol-5-yl)(phenyl)methyl)piperazine-1-carbonyl)pyridin-4-yl)benzo[d]oxazol-5-yl)cyclopropane-1-carboxamide], the values for the EC50 in test [2] and in test [3] were 33 nM and 127 nM, respectively.
With `Cn1nnc(C(c2ccccc2)N2CCN(C(=O)c3cc(-c4nc5cc(NC(=O)C6(F)CC6)ccc5o4)ccn3)CC2)n1` (centres unmarked) [Compound 194, 1-fluoro-N-(2-(2-(4-((2-methyl-2H-tetrazol-5-yl)(phenyl)methyl)piperazine-1-carbonyl)pyridin-4-yl)benzo[d]oxazol-5-yl)cyclopropane-1-carboxamide], the EC50 in test [2] came out at 24 nM; in test [3], 25 nM.
As for `O=C(Nc1ccc2oc(-c3ccnc(C(=O)N4CCN(C(c5ccccc5)c5nnn(C(F)F)n5)CC4)c3)nc2c1)C1CC1(F)F` (single isomer, unassigned) [Compound 82, (R/S)—N-(2-(2-(4-((R/S)-(2-(difluoromethyl)-2H-tetrazol-5-yl)(phenyl)methyl)piperazine-1-carbonyl)pyridin-4-yl)benzo[d]oxazol-5-yl)-2,2-difluorocyclopropane-1-carboxamide], the EC50 was 7 nM in test [2] and 11 nM in test [3].
